For one compound, IC50 results are on record in patent US10053434B2, “Histone deacetylase inhibitors and compositions and methods of use thereof” (CHDI Foundation, Inc., priority 2015, dated 2018).

Test [1] relates to Cellular Class I HDAC activity. The test can be described thus: Inhibition of cellular Class I HDAC activity; Cell (Lys-Ac) substrate, Jurkat E6-1 cells. The test is classed as cell-based. As to conditions: Boc-Lys(Ac)-AMC substrate. An excerpt: (§1) The potency of Class IIa Histone Deacetylase (HDAC) inhibitors was quantified by measuring the cellular histone deacetylase enzymatic activity using the fluorogenic substrate, Boc-Lys(TFA)-AMC. After penetration in Jurkat E6-1 cells, the substrate was deacetylated to Boc-Lys-AMC. After cell lysis and cleavage by trypsin, the fluorophore AMC was released from the deacetylated substrate only. The fluorescence of the sample was directly related to the histone deacetylase activity in the sample.
(§2) Jurkat E6.1 cells were cultured according to standard cell culture protocols in Jurkat E6.1 Growth Media (RPMI without phenol red, 10% FBS, 10 mM HEPES, and 1 mM Sodium Pyruvate). Jurkat E6.1 cells were counted using a Coulter Counter and resuspended in Jurkat E6.1 growth media at a concentration of 75,000 cells/35 μL. 35 μL or 75,000 cells was seeded into Greiner microtitre assay plates. The plates were then incubated at 37° C. and 5% CO2 while other assay components were being prepared.
(§3) Serial dilutions of the HDAC inhibitors and control reference compound (1-(5-(3-((4-(1,3,4-oxadiazol-2-yl)phenoxy)methyl)-1,2,4-oxadiazol-5-yl)thiophen-2-yl)-2,2,2-trifluoroethanone) were made by first resuspending the lyophilized compound to a final concentration of 10 mM in 100% DMSO. Stocks of 70 μL aliquots of the 10 mM compound in DMSO were prepared and stored at −20° C. From one stock aliquot of each tested compound and the reference compound, a 16-point serial dilution was prepared according to Table 1 using a 125 μL 16-channel Matrix multi-channel pipette.
(§4) 2 μL (200×) of each diluted solution and each control (full activity: 100% DMSO alone or full inhibition 1 mM) was stamped into V-bottom polypropylene 384-well compound plates using either the Bravo, Janus, or 12.5 μL 16-channel Matrix multi-channel pipette. Each well with the 200× compound solution was diluted 1:20 by the addition of 38 μL Jurkat assay buffer+DMSO (9.5% DMSO, RPMI without phenol red, 0.09% FBS, 9 mM Hepes, and 0.9 mM Sodium Pyruvate equilibrated to r.t.)
(§5) 5× (500 μM) substrate was prepared just prior to the addition to the assay. The 5× substrate was prepared by diluting a 100 mM Boc-Lys(TFA)-AMC in DMSO solution 1:200 by adding it drop-wise to Jurkat assay medium (RPMI without phenol red, 0.1% FBS, 10 mM Hepes, and 1 mM Sodium Pyruvate equilibrated to 37° C.) while vortexing at slow speed to prevent precipitation.
(§6) 10 mL of 3× lysis buffer was prepared with 8.8 mL of 3× stock lysis buffer (50 mM Tris-HCl, pH 8.0, 137 mM NaCl, 2.7 mM KCl, 1 mM MgCl2, 1% Nonidet P40 Substitute equilibrated to r.t.) and 1.2 mL of 3 mg/mL Trypsin equilibrated to r.t.
(§7) 5 μL of each solution of 1:20 diluted compound from above was transferred to the Greiner microtitre assay plates with 75,000 cells/well using the Bravo. Cells were then incubated for 2 hours at 37° C. and 5% CO2. The assay was then started by adding 10 μL of 5× (500 μM) substrate to the assay plate using either the Bravo or 16-channel Matrix multi-channel pipette. The cells were then incubated for 3 hours at 37° C. and 5% CO2. Next, 25 μL of 3× lysis buffer was added to each well using either the 125 μL 16 channel pipette or the Bravo. The assay plate was then incubated overnight (15-16 hours) at 37° C. and 5% CO2. The following day, the plates were shaken on an orbital shaker for 1 minute at 900 rpm. Finally the top read fluorescence (Excitation: 355 nm, Emission: 460 nm) was measured using PerkinElmer EnVision.
Example 30: Analysis of Inhibition of Cellular Class I HDAC Activity with Class IIa Histone Deacetylase (HDAC) Inhibitors; Cell (Lys-Ac) Substrate
The Class I HDAC activity of Class IIa Histone Deacetylase (HDAC) inhibitors was quantified by measuring the cellular histone deacetylase enzymatic activity using the fluorogenic substrate, Boc-Lys(Ac)-AMC. This was performed according to the procedure in Example 29, using Boc-Lys(Ac)-AMC substrate in place of Boc-Lys(TFA)-AMC.

The target in test [2] is human catalytic domain HDAC4 protein (amino acids 648-1032) (Homo sapiens (Human), UniProt P56524). Briefly: HDAC4 catalytic domain enzymatic activity, fluorogenic substrate Boc-Lys(TFA)-AMC. Particulars: read-out: HDAC4 Biochemical IC50.
Chain of human catalytic domain HDAC4 protein (amino acids 648-1032) (P56524 648-1032): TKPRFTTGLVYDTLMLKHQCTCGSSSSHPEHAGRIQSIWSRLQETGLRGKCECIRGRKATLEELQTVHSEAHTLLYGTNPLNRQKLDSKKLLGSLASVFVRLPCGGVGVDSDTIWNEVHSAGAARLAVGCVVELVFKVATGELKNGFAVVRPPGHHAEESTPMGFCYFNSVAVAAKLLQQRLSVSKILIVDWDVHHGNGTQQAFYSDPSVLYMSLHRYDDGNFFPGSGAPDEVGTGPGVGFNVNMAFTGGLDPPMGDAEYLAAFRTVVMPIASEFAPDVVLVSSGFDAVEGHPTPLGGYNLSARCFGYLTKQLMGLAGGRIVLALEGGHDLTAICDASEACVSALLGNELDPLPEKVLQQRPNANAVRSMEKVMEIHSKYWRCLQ
From the text: Example 25: Analysis of Inhibition of HDAC4 with Class IIa Histone Deacetylase (HDAC) Inhibitors
The potency of Class IIa Histone Deacetylase (HDAC) inhibitors was quantified by measuring the Histone Deacetylase 4 (HDAC4) catalytic domain enzymatic activity using the fluorogenic substrate, Boc-Lys(TFA)-AMC. The substrate was deacetylated to Boc-Lys-AMC by HDAC4. […] The fluorescence of the sample was directly related to the histone deacetylase activity in the sample.
(§8) Serially Dilute HDAC Inhibitor Compounds.
as §3, with “dimethyl sulfoxide (DMSO).” for “DMSO.”, “60” for “70”, “pipette (Matrix Technologies Ltd).” for “pipette.”
2 μL (200×) of each diluted solution and each control (full activity: 100% DMSO alone or full inhibition 1 mM) was stamped into V-bottomed polypropylene 384-well compound plates using either the Bravo (384-well head from Agilent) or 12.5 μL 16-channel Matrix multi-channel pipette (Matrix Technologies Ltd). Each well with the 200× compound solution was diluted 1:20 by the addition of 38 μL assay buffer+DMSO (10.5% DMSO, 45 mM Tris-HCl, 123 mM NaCl, 2.4 mM KCl, and 0.9 mM MgCl2 at pH 8.0 and equilibrated to r.t.).
Prepare HDAC4 Catalytic Domain Enzyme (0.2 μg/mL).
The HDAC4 catalytic domain enzyme was human catalytic domain HDAC4 protein (amino acids 648-1032) with a C-terminal 6× histidine tag, produced by BioFocus. A working solution of enzyme was prepared from a […] stock aliquot of HDAC4 catalytic domain (thawed on ice) diluted to 0.2 μg/mL with assay buffer (50 mM Tris-HCl, 137 mM NaCl, 2.7 mM KCl, and 1 mM MgCl2 at pH 8 and equilibrated to r.t.) just prior to the addition of the enzyme to the assay.
Prepare 5× (50 μM) Boc-Lys(TFA)-AMC Substrate.
5× (50 μM) substrate was prepared just prior to the addition to the assay. A 1 mM substrate stock was made by diluting a 100 mM Boc-Lys(TFA)-AMC in DMSO solution 1:100 by adding it drop-wise to assay buffer (equilibrated to r.t.) while vortexing at slow speed to prevent precipitation. The 5× substrate was prepared by diluting the 1 mM substrate solution 1:20 by adding it drop-wise to assay buffer (equilibrated to r.t.) while vortexing at slow speed to prevent precipitation.
Prepare 3× (30 μM) Developer/Stop Solution.
3× (30 μM) Developer/Stop Solution was prepared just prior to addition to the plate by diluting a stock solution of 10 mM reference compound 1:333 in 25 mg/mL trypsin (PAA Laboratories Ltd.) equilibrated to r.t.
5 μL of each solution of 1:20 diluted compound from above was transferred to a clear bottomed, black, 384-well assay plate using the Bravo or the Janus (384-well MDT head from Perkin Elmer). Using a 16-channel Matrix multi-channel pipette, 35 μL of the working solution of HDAC4 catalytic domain enzyme (0.2 μg/mL in assay buffer) was transferred to the assay plate. The assay was then started by adding 10 μL of 5× (50 μM) substrate to the assay plates using either the Bravo, Janus or 16-channel Matrix multi-channel pipette. The assay plate was then shaken for two minutes on an orbital shaker at 900 rpm (rotations per minute). Next the plate was incubated for 15 minutes at 37° C. The reaction was stopped by adding 25 μL of 3× (30 μM) developer/stop solution to the assay plates using either the Bravo, Janus or a 16-channel Matrix multi-channel pipette. Assay plates were then shaken for 5 minutes on an orbital shaker at 1200 rpm. Next, the assay plates were incubated at 37° C. for 1 hour in a tissue culture incubator. […]

Test [3] relates to Cellular Class IIa HDAC activity. The test can be described thus: Inhibition of cellular Class IIa HDAC activity; Cell (Lys-TFA) substrate, Jurkat E6-1 cells. The test is classed as cell-based. Particulars: Boc-Lys(TFA)-AMC substrate.
From the text: Example 29: Analysis of Inhibition of Cellular Class IIa HDAC Activity with Class IIa Histone Deacetylase (HDAC) Inhibitors; Cell (Lys-TFA) Substrate
as §1
Jurkat E6.1 Cell Culture and Plating.
as §2, §8, §3, §4
Prepare 5× (500 μM) Boc-Lys(TFA)-AMC Substrate.
as §5, §6, §7

As usually defined, the IC50 is the point on the concentration scale where inhibition reaches its midpoint.

For `C[C@H](CN1CCC[C@@H]1C)NC(=O)c1ccc(-c2noc(C(F)(F)F)n2)cn1` [Example 24, N—((R)-1-((S)-2-Methylpyrrolidin-1-yl)propan-2-yl)-5-(5-(trifluoromethyl)-1,2,4-oxadiazol-3-yl)picolinamide], the IC50 in test [1] was determined as 33.7 µM; in test [2], 0.134 µM; in test [3], 1.03 µM.
